PMC5812297, “Specificity and Application of the Lantibiotic Protease NisP” (Frontiers in Microbiology, 2018)
Entries after “also recorded” stand apart in the source; their conditions may differ. Ends that are not written are not given here.

How the values were obtained:
NisP = experiment: Cleavage of nisin mutants by NisP in crude supernatants or purified peptide, masses by MALDI-TOF; assay type: biochemical, Lactococcus lactis; settings: His-tagged purified NisP, overnight 37°C; for Aberrant cleavage / misprocessing by NisP: culture pH (4.5–5.0) or pH 6.0, MALDI-TOF
Experimental: Alternatively, supernatants containing nisin mutant peptides produced after induction were divided into two fractions; one in which the pH was adjusted to 6.0 and the other one where the pH was the actual fermentation pH. They were incubated overnight at 37°C with or without His-tagged purified NisP at a ratio of 1000:1. After the incubation, the supernatants were precipitated using TCA and resuspended in 1/20 volume 0.05% acetic acid. For the mutants that were produced in lower amounts, larger volumes were induced and the peptides were purified by cationic exchange chromatography as described before and separated by reverse phase chromatography using a Jupiter 4 μm Proteo 90 Å 250 × 4.6 mm C12 analytical column (Phenomenex). The column was equilibrated in 20% organic solvent (acetonitrile 0.1% TFA) before the sample injection. It was washed for 5 min before applying a linear gradient from 20 to 50% organic solvent in 20 min. 1 μl of each collected peak was used for mass-spectrometry determination.
Mass spectrometry analysis of the samples was performed by matrix-assisted laser desorption/ionization (MALDI) time-of-flight (ToF) in an ABI Voyager DE Pro (Applied Biosystems) operating in linear mode as previously described using external calibration (van Heel et al., [2013]). Briefly, 1 μl sample was spotted, dried and washed with 5 μL Milli-Q water, on the target. Next, 1 μl of α-cyano-4-hydroxycinnamic acid 5 mg/ml (Sigma-Aldrich) was spotted on the sample.
We designed a set of nisin mutants to investigate the specificity of NisP (Figure 4). For all these mutants, supernatants were collected after induction and divided into three fractions. NisP was added to two of these fractions, one maintaining the pH of the culture (4.5–5.0) and the other fraction was adjusted to pH 6.0. The third fraction was used as an untreated control. After cleavage, the masses of the peptides were monitored by MALDI-TOF (Table 2).

[1] = system: L. lactis NZ9000 (pNZnisP-8H); experiment: Antimicrobial activity of purified prelantibiotics against NisP producing sensor strain; assay type: cell-based, Lactococcus lactis; settings: compared to the plasmid free strain, data not shown
Experimental: (§1) Activity tests were performed by well-diffusion assay as indicated by van Heel et al. ([2013]). L. lactis NZ9000 transformed with the appropriate plasmids or Micrococcus flavus were used as sensor strains as specified in each figure. The cleavage of nisin by NisP after SDS-PAGE was monitored washing the gel according to Bhunia et al. ([1987]) and covering with an overlay of GM17 soft agar inoculated with NZ9000 (pIL3BTC pNZnisA-E3) induced with 1 ng/ml nisin. The overlay was incubated for 16 h, after which the presence of inhibition zones was evaluated.
The substrate tolerance of soluble NisP was tested using a set of different lantibiotics. These were produced using the nisin modification machinery encoded in NZ9000 (pIL3BTC pNZE3-mutant) and purified by cationic exchange chromatography. For this purpose, NZ9000 (pNZ-nisP-8H) was used as a sensor strain and tested using gallidermin (van Heel et al., [2013]) and two lantibiotics detected in the genome of Streptococcus pneumoniae, PneA1 and PneA2 encoded in the genes spr1765 and spr1766, respectively, which were heterologously expressed in L. lactis fused to the nisin leader peptide (Majchrzykiewicz et al., [2010]) (Figure 5). […] The activity was restored when a strain producing soluble NisP was employed.
Figure 5 Antimicrobial activity of purified modified lantibiotics gallidermin, 1215 and 1268 against L. lactis NZ9000 (pNZnisP-8H). […]

[2] = system: L. lactis NZ9000 (pIL253 pNZ8048); experiment: Activity of the proteases in crude supernatants, antimicrobial assay against L. lactis; assay type: cell-based, Lactococcus lactis; settings: 1 μl protease with 50 μl supernatant containing its corresponding prenisin variant
Experimental: as §1
To further compare the versatility of NisP in culture conditions with various proteases frequently used in biotechnology, we mutated the last four amino acids in the leader peptide (P4-P1) of nisin (i.e., ASPR) to insert a factor Xa (IEGR) or a thrombin (AVPR) cleavage site. We also mutated the arginine in position P1 of the leader peptide into glutamic acid, creating a cleavage site for the endoprotease Glu-C. Additionally, the proposed self-cleavage sequence of NisP (VSLR) (Figure 1, van der Meer et al., [1993]) was used to replace the ASPR sequence at the end of the nisin leader peptide. […] The cleavage was evaluated by activity against NZ9000 (pIL253 pNZ8048), which is resistant to the erythromycin and chloramphenicol present in the supernatants of the substrate producer strains but sensitive to nisin. […]

Micrococcus flavus = experiment: Activation of prenisin with supernatants containing NisP variants, antimicrobial assay; assay type: cell-based; settings: supernatants after 3 h induction; in the first test 5 μl with 50 μl prenisin
Experimental: as §1
The supernatants of the strains NZ9000 (pNZnisPsl-8H) and NZ9000 (pNZnisPsl-8K) were tested for the presence of protease activity after 3 h of induction with nisin. In each case, 5 μl of the supernatant was mixed with 50 μl of prenisin obtained by TCA precipitation of induced NZ9000 (pIL3BTC pNZnisA-E3). […]
In a second approach, we attempted to reduce the size of NisP, while keeping the active subtilisin-like domain intact. […] Additionally, the size of the inhibition halo measured is larger in the samples activated with the soluble protease present in the supernatants of these three engineered strains compared to the samples activated with the supernatant of L. lactis NZ9000 (pNGnisTP), which produces as a major product wild-type cell-anchored NisP.

## nisin I1D: Nisin I1D mutant (MSTKDFNLDLVSVSKKDSGASPRDTSISLCTPGCKTGALMGCNMKTATCHCSIHVSK; ends and bridges not checked; cysteine pairing not given here; UniProt P13068 1-57, looked up, variant I1D)
NisP; ratio 1000:1, culture pH (4.5–5.0) or pH 6.0, MALDI-TOF
  Cleavage by NisP: a small fraction of uncleaved peptide after the incubation of the mutant nisin I1D with the protease, which indicates reduced cleavage efficiency

## nisin I1K: Nisin I1K mutant (MSTKDFNLDLVSVSKKDSGASPRKTSISLCTPGCKTGALMGCNMKTATCHCSIHVSK; ends and bridges not checked; cysteine pairing not given here; UniProt P13068 1-57, looked up, variant I1K)
NisP
  Aberrant cleavage / misprocessing by NisP: a small fraction of mature nisin with a mass difference consistent with the presence of Arg P1 in the mature peptide
NisP; listed as I1K
  Aberrant cleavage / misprocessing by NisP: a small additional peak detected by mass-spectrometry consistent with a cleavage between positions P2 and P1

## nisin-C7A: Nisin C7A mutant, lacking the first ring (MSTKDFNLDLVSVSKKDSGASPRITSISLATPGCKTGALMGCNMKTATCHCSIHVSK; not fully specified; cysteine pairing not given here; UniProt P13068 1-57, looked up, variant C7A)
NisP
  Aberrant cleavage / misprocessing by NisP: small peaks corresponding to peptides cleaved at abnormal P1 or P2 positions in the leader peptide; also recorded: a small fraction of nisin lacking the first amino acid(s)

## nisin-ringA-less: Nisin (T2V S3A S5A C7A) mutant (MSTKDFNLDLVSVSKKDSGASPRIVAIALATPGCKTGALMGCNMKTATCHCSIHVSK; not fully specified; cysteine pairing not given here; UniProt P13068 1-57, looked up, variant T2V S3A S5A C7A)
NisP
  Aberrant cleavage / misprocessing by NisP: small peaks corresponding to peptides cleaved at abnormal P1 or P2 positions in the leader peptide; also recorded: a small fraction of nisin lacking the first amino acid(s)

## nisin: mature model lantibiotic (ITSISLCTPGCKTGALMGCNMKTATCHCSIHVSK; Lantibiotic nisin-A; UniProt P13068 24-57, looked up)
[1]
  Sensitivity of the NisP producing strain to nisin: increased sensitivity

## thrombin
[2]
  Activity of the protease in culture conditions (release of active nisin): active; also recorded: able to cleave in culture conditions

## trypsin
[2]
  Activity of the protease in culture conditions (release of active nisin): able to cleave in culture conditions
Micrococcus flavus
  Protease activity (antimicrobial activity after activation of prenisin): antimicrobial activity only in the positive controls

B1: NZ9000 (pNGnisTP): strain producing as a major product wild-type cell-anchored NisP (protein, UniProt Q07596 1-682, looked up)
chain: MKKILGFLFIVCSLGLSATVHGETTNSQQLLSNNINTELINHNSNAILSSTEGSTTDSINLGAQSPAVKSTTRTELDVTGAAKTLLQTSAVQKEMKVSLQETQVSSEFSKRDSVTNKEAVPVSKDELLEQSEVVVSTSSIQKNKILDNKKKRANFVTSSPLIKEKPSNSKDASGVIDNSASPLSYRKAKEVVSLRQPLKNQKVEAQPLLISNSSEKKASVYTNSHDFWDYQWDMKYVTNNGESYALYQPSKKISVGIIDSGIMEEHPDLSNSLGNYFKNLVPKGGFDNEEPDETGNPSDIVDKMGHGTEVAGQITANGNILGVAPGITVNIYRVFGENLSKSEWVARAIRRAADDGNKVINISAGQYLMISGSYDDGTNDYQEYLNYKSAINYATAKGSIVVAALGNDSLNIQDNQTMINFLKRFRSIKVPGKVVDAPSVFEDVIAVGGIDGYGNISDFSNIGADAIYAPAGTTANFKKYGQDKFVSQGYYLKDWLFTTANTGWYQYVYGNSFATPKVSGALALVVDKYGIKNPNQLKRFLLMNSPEVNGNRVLNIVDLLNGKNKAFSLDTDKGQDDAINHKSMENLKESRDTMKQEQDKEIQRNTNNNFSIKNDFHNISKEVISVDYNINQKMANNRNSRGAVSVRSQEILPVTGDGEDFLPALGIVCISILGILKRKTKN
modifications: full-length
notes: strain producing as a major product wild-type cell-anchored NisP
Micrococcus flavus
  Protease activity (antimicrobial activity after activation of prenisin): antimicrobial activity only in the positive controls
